Test results taken from paper PMC10178127, “Immunomodulatory Effects of the Pea Defensin Psd1 in the Caco-2/Immune Cells Co-Culture upon Candida albicans Infection” (International Journal of Molecular Sciences, 2023).

Key:
[1] = tested on: polarized Caco-2 monolayer; assay: Real-time PCR of HBD-2, IL-1β, IL-8/CXCL8 genes in Caco-2 cells; format: cell-based, human
Protocol: Caco-2 cells were seeded into the wells of 24-well plates in the complete RPMI-1640 medium containing 10% FBS and 1X antibiotic-antimycotic solution and kept in a humidified CO2-incubator (5% CO2, 37 °C). Cells were grown for 18 days and the medium was changed twice a week. The presence of a cell monolayer was checked using an inverted microscope and the plates were incubated one more week for complete polarization of Caco-2 cells. Caco-2 cells were stimulated by adding fresh complete RPMI-1640 medium without antibiotics, containing Psd1 at the final concentration of 2 µM or Candida albicans at the concentration of 5 × 10^4 cells/mL (1.3 × 10^4 cells per cm^2 of Caco-2 monolayer) or yeast cells together with the pea defensin at the same concentration. RPMI-1640 medium only was used in control wells.
Total RNA was isolated from Caco-2 cells using TRIzol reagent (Invitrogen) according to the manufacturer’s instructions after 4 or 24 h of stimulation and cell washing by RPMI-1640 medium. The quality and quantity of total RNA were determined by the A260/280 ratio using NanoPhotometer NP80 (Implen GmbH, München, Germany) as well as agarose gel electrophoresis (Supporting Materials, Figure S3). RNase inhibitor (Evrogen, Moscow, Russia) was added to the final preparation of total RNA. Two μg of total RNA was taken to synthesize the cDNA using MINT-Universal cDNA synthesis kit (Evrogen, Moscow, Russia) containing MMLV-based reverse transcriptase following the manufacturer’s instructions.
Real-time PCR was performed on CFX Opus 96 Real-Time PCR System (Bio-Rad, Hercules, CA, USA) using the SYBR Green PCR kit (Evrogen, Moscow, Russia) and target-specific primers (Supporting Materials, Table S4). The internal control housekeeping gene GAPDH was amplified simultaneously in separate reaction tubes [36]. The reaction conditions were set as follows: initial heating at 95 °C for 3 min, followed by 50 cycles of reactions at 95 °C (15 s), followed by 62 °C (20 s), and finally 72 °C (30 s). Melt curves were obtained using a temperature increment from 50 to 95 °C at 0.5 °C/5 s (Supporting Materials, Figure S4). The threshold cycle number (CT) of reactions was determined using the CFX Maestro 2.2 (version 5.2.008.0222) software (Bio-Rad, Hercules, CA, USA). The efficiency of PCR was monitored by using LinRegPCR online tool (https://www.gear-genomics.com/rdml-tools/). The relative expression of the genes of interest was calculated by normalization to GAPDH using the standard 2^−ΔΔCT method. Unstimulated Caco-2 cells after 4 and 24 h of incubation were used as controls. Experiments were performed twice in six technical replications. Gene expression in controls and experimental samples was compared with a t-test using GraphPad Prism v.8.0.1. The p-values ≤ 0.05 were considered significant.

C. albicans v47a3 = assay: Yeast growth in Caco-2/C. albicans co-culture, microscopy; format: cell-based, Candida albicans; settings: 2 μM Psd1, 4 and 24 h
Protocol: Candida albicans cells in stock were inoculated onto modified YPD (yeast extract 5 g/L, peptone 10 g/L, glucose 10 g/L) agar plates, and incubated for 24 h at 37 °C. After replating, cells were cultured in complete RPMI-1640 (Capricorn Scientific) without antibiotics at 37 °C to optical density 1.0 at 540 nm, centrifuged, and diluted up to the concentration of 5 × 10^4 cells/mL in fresh RPMI-1640 without FBS and antibiotics. In the case of studying combined action on the epithelium of yeast cells and the pea Psd1 recombinant peptide was dissolved in water at the concentration of 200 μM and was added to yeast cell suspension up to the final concentration of 2 μM. Yeast growth and morphology in the presence or absence of peptide under co-cultivation with Caco-2 cells in a 24-well plate were estimated using an inverted microscope, Olympus CKX41 (Olympus, Tokyo, Japan).

## Psd1: pea defensin from Pisum sativum (UNIPROT P81929), recombinant peptide overexpressed in Escherichia coli (KTCEHLADTYRGVCFTNASCDDHCKNKAHLISGTCHNWKCFCTQNC; UniProt P81929 1-46, looked up)
[1]; 2 μM Psd1, 24 h
  expression of HBD-2, IL-1β and IL-8/CXCL8 genes: Immunostimulatory action of Psd1 was observable
[1]; 2 μM Psd1 alone, 4 h, relative to untreated Caco-2
  expression of HBD-2, IL-1β and IL-8/CXCL8 genes: upregulated all three genes
[1]; 2 μM Psd1 with C. albicans vs C. albicans alone, 24 h, p < 0.05
  expression of HBD-2, IL-1β and IL-8/CXCL8 genes: significantly reduced the inhibitory effect of pathogenic fungus
[1]; 2 μM Psd1 with C. albicans, 4 h
  expression of HBD-2, IL-1β and IL-8/CXCL8 genes: more pronounced activation of the protective immune response
C. albicans v47a3
  growth of C. albicans in Caco-2/C. albicans co-culture: did not inhibit the growth of C. albicans
